Laboratory results published in ChEMBL document CHEMBL1135110, “Structure-based design of peptidomimetic antagonists of p56(lck) SH2 domain” (Bioorg Med Chem Lett, 2002).
Non-standard residues stand in square brackets, D forms with d. Residues, ends and D or L forms follow the SMILES beside them. pY = N[C@@H](Cc1ccc(OP(=O)(O)O)cc1)C(=O)O

Molecular target: Tyrosine-protein kinase Lck (Homo sapiens, UniProt P06239)
Assay: Inhibitory activity towards p56 Lck tyrosine kinase SH2 domain using scintillation proximity assay (SPA)

Chain of Tyrosine-protein kinase Lck (P06239 whole entry, the tested form may be a part): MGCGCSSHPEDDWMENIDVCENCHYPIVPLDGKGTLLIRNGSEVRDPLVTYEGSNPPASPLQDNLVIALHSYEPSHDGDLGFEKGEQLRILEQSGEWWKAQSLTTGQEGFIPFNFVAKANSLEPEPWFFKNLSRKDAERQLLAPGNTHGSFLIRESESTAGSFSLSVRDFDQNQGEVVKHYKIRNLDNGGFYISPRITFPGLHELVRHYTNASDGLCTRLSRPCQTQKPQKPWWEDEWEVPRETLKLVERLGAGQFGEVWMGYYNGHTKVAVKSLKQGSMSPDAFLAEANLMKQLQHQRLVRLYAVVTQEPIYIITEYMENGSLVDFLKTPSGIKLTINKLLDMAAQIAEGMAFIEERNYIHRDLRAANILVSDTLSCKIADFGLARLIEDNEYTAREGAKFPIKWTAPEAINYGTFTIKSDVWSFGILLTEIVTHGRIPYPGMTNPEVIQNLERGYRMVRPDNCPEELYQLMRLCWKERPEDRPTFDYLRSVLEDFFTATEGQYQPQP

Row | SMILES | IC50 [nM]
1 | CC(=O)N[C@@H](Cc1ccc(OP(=O)(O)O)cc1)C(=O)N[C@H]1CCC(=O)N2CCC[C@@H](C(=O)NC3CCc4ccccc43)N2C1=O (stereo partly specified) | 1200
2 | CC(=O)N[C@@H](Cc1ccc(OP(=O)(O)O)cc1)C(=O)N[C@H]1CCC(=O)N2CCC[C@@H](C(=O)N[C@H]3C[C@@H](C(=O)O)c4ccccc43)N2C1=O | 2800
3 | CC(=O)N[C@@H](Cc1ccc(OP(=O)(O)O)cc1)C(=O)N[C@H]1CCC(=O)N2CCC[C@@H](C(=O)N[C@H]3C[C@H](C(=O)O)c4ccccc43)N2C1=O | 2000
4 | CC(=O)N[C@@H](Cc1ccc(OP(=O)(O)O)cc1)C(=O)N[C@H]1CCC(=O)N2CCC[C@@H](C(=O)NCc3cccc4ccccc34)N2C1=O | 1900
5 | CC(=O)N[C@@H](Cc1ccc(OP(=O)(O)O)cc1)C(=O)N[C@H]1CCC(=O)N2CCC[C@@H](C(=O)Nc3cccc4ccccc34)N2C1=O | 1100
6 | CC(=O)N[C@@H](Cc1ccc(OP(=O)(O)O)cc1)C(=O)N[C@H]1CCC(=O)N2CCC[C@@H](C(=O)N[C@@H]3C[C@H](C(=O)O)c4ccccc43)N2C1=O | 30
7 | CC(=O)N[C@@H](Cc1ccc(OP(=O)(O)O)cc1)C(=O)N[C@H]1CCC(=O)N2CCC[C@@H](C(=O)N[C@@H]3C[C@@H](C(=O)O)c4ccccc43)N2C1=O | 100
8 | CC(=O)N[C@@H](Cc1ccc(OP(=O)(O)O)cc1)C(=O)N[C@H]1CCC(=O)N2CCC[C@@H](C(=O)NCC34CC5CC(CC(C5)C3)C4)N2C1=O | 1100
9 | CC[C@H](C)[C@H](NC(=O)[C@@H]1CCCN1C(=O)[C@@H](NC(=O)[C@H](CCC(=O)O)NC(=O)[C@H](CCC(=O)O)NC(=O)[C@H](Cc1ccc(OP(=O)(O)O)cc1)NC(=O)[C@H](CCC(N)=O)NC(=O)[C@@H]1CCCN1C(=O)[C@@H](N)CCC(=O)O)[C@@H](C)CC)C(=O)N[C@@H](Cc1ccc(O)cc1)C(=O)N[C@@H](CC(C)C)C(=O)O (H-EPQ[pY]EEIPIYL-OH) | 360
10 | CC(=O)N[C@@H](Cc1ccc(OP(=O)(O)O)cc1)C(=O)N[C@H]1CCC(=O)N2CCC[C@@H](C(=O)NC3CC(C(=O)O)c4ccccc43)N2C1=O (stereo in doubt; 34) | 7700
11 | CC(=O)N[C@@H](Cc1ccc(OP(=O)(O)O)cc1)C(=O)N[C@H]1CCC(=O)N2CCC[C@@H](C(=O)NC3CC(C(=O)O)c4ccccc43)N2C1=O (stereo in doubt; 35) | 7300

Next, values leading:

Row | IC50 [nM] | SMILES
12 | 2000 | CC[C@H](C)[C@H](NC(=O)[C@H](CCC(=O)O)NC(=O)[C@H](CCC(=O)O)NC(=O)[C@H](Cc1ccc(OP(=O)(O)O)cc1)NC(C)=O)C(=O)NC
13 | 1600 | CC[C@H](C)[C@H](NC(=O)[C@H](CCC(=O)O)NC(=O)[C@H](CCC(=O)O)NC(=O)[C@H](Cc1ccc(OP(=O)(O)O)cc1)NC(C)=O)C(=O)N1CCC[C@@H]1C(=O)NC
14 | 1600 | CC(=O)N[C@@H](Cc1ccc(OP(=O)(O)O)cc1)C(=O)N[C@H]1CCC(=O)N2CCC[C@@H](C(=O)NCC3CCCCC3)N2C1=O
15 | 1900 | CCCCNC(=O)[C@@H]1CCCN2C(=O)CC[C@H](NC(=O)[C@H](Cc3ccc(OP(=O)(O)O)cc3)NC(C)=O)C(=O)N12
16 | 1800 | CCCCCNC(=O)[C@@H]1CCCN2C(=O)CC[C@H](NC(=O)[C@H](Cc3ccc(OP(=O)(O)O)cc3)NC(C)=O)C(=O)N12
17 | 400 | CC(=O)N[C@@H](Cc1ccc(OP(=O)(O)O)cc1)C(=O)N[C@H]1CCC(=O)N2CCC[C@@H](C(=O)NCc3ccc(Cl)cc3)N2C1=O
18 | 1600 | CC[C@H](C)[C@H](NC(=O)[C@@H]1CCCN2C(=O)CC[C@H](NC(=O)[C@H](Cc3ccc(OP(=O)(O)O)cc3)NC(C)=O)C(=O)N12)C(=O)NC
19 | 10000 | CC(=O)N[C@@H](Cc1ccc(OP(=O)(O)O)cc1)C(=O)N[C@H]1CCC(=O)N2CCC[C@@H](C(=O)NCc3ccc(O)cc3)N2C1=O
20 | 1800 | CC(=O)N[C@@H](Cc1ccc(OP(=O)(O)O)cc1)C(=O)N[C@H]1CCC(=O)N2CCC[C@@H](C(=O)NCC(C)(C)C)N2C1=O
21 | 1500 | CC(=O)N[C@@H](Cc1ccc(OP(=O)(O)O)cc1)C(=O)N[C@H]1CCC(=O)N2CCC[C@@H](C(=O)NCc3ccccc3)N2C1=O
22 | 6000 | CCCNC(=O)[C@@H]1CCCN2C(=O)CC[C@H](NC(=O)[C@H](Cc3ccc(OP(=O)(O)O)cc3)NC(C)=O)C(=O)N12
23 | 1200 | CC[C@@H](C)CNC(=O)[C@@H]1CCCN2C(=O)CC[C@H](NC(=O)[C@H](Cc3ccc(OP(=O)(O)O)cc3)NC(C)=O)C(=O)N12
24 | 8500 | CCNC(=O)[C@@H]1CCCN2C(=O)CC[C@H](NC(=O)[C@H](Cc3ccc(OP(=O)(O)O)cc3)NC(C)=O)C(=O)N12
25 | 17000 | CNC(=O)[C@H](CCC(=O)O)NC(=O)[C@H](CCC(=O)O)NC(=O)[C@H](Cc1ccc(OP(=O)(O)O)cc1)NC(C)=O (Ac-[pY]-Glu-Glu-NHMe)
26 | 350000 | CNC(=O)[C@H](CCC(=O)O)NC(=O)[C@H](Cc1ccc(OP(=O)(O)O)cc1)NC(C)=O (Ac-[pY]-Glu-NHMe)
